The record followed here is US10213449B2, “Compositions and methods for treating medulloblastoma” (The Board of Trustees of the Leland Stanford Junior …, priority 2016, dated 2019).

“Also recorded” adds a separate entry of the source.

Experiment [1] deals with Hh signaling in Sufu−/− mouse embryonic fibroblasts. As to the kind of experiment: RT-qPCR of Gli1 in Sufu−/− MEFs (epistasis study). It is filed as cell-based. The source says: Epistasis studies were next performed to determine where in the hedgehog pathway CK2 acts. The effect of TBB was examined: (i) in NIH 3T3s stimulated with SAG, a SMO agonist, (ii) in Sufu−/− mouse embryonic fibroblasts (MEF), and (iii) in NIH 3T3 cells overexpressing GLI2 (FIG. 3d-3f).
Sufu^−/− MEFs (conditional deletion of exons 4-8) were kindly provided by Pao-Tien Chang (UCSF). SAG (S7779), GDC-0449 (Vismodegib, S1082) and CX-4945 (Silmitasertib, S2248) was purchased from SelleckChem.com. TBB was purchased from EMD (218697). Shh-N conditional medium was made using a HEK 293 cell line that stably secretes ShhN as previously described. Myc-GL12-DN (17649, pCS2-MT-GLI2-deltaN) plasmid was purchased from Addgene (Cambridge, Mass., USA). […]
NIH3T3s or SUFU−/− MEFs were plated in 6 well plates at 400,000 cells/well in 10% FBS media constituted of DMEM (Invitrogen11960-069) supplemented with 10% FBS (Hyclone Labs SH30070.02), pen/strep (Life Technologies 15140-122), sodium pyruvate (Invitrogen 11360-070) and glutamax (Invitrogen 35050-061). […] RNA was quantified on a nanodrop spectrophotometer (nanoddrop technologies ND-2000C). Transcript quantification was performed using a TaqMan RNA-to-Ct 1-Step Kit (Life technologies, 4392656) and the Applied Biosystems 7500 RT-PCR system as per the manufacturer's instructions. […]
(Quantitative PCR measures a nucleic acid by following its amplification.)

Experiment [2] relates to Brd4 occupancy at Gli1 and Gli2 promoters. As to the kind of experiment: Brd4 ChIP-qPCR in NIH3T3s stimulated with SHH. The format is cell-based, mouse. On the procedure: It was therefore investigated whether CK2 regulates Brd4-mediated transactivation of the Gli promoters. Chromatin immunoprecipitation (ChIP) was performed in NIH3T3s stimulated with SHH using anti-Brd4 antibodies, followed by quantitative PCR (qPCR) of regions flanking the transcription start sites within the Gli1 and Gli2 promoters.
Wildtype CD1-Elite (Charles River strain 482) P7 mice were randomized to control or treatment groups then given two injections of DMSO (control) or TBB (30 mg/kg) q12h×2. Mice were sacrificed and GNPs were isolated as described in “GNP isolation”. Chomatin immunoprecipitation was performed as previously described. GNPs were cross-linked in 1% formaldehyde for 10 minutes at RT then fixation was stopped by adding 2.5M glycine for 10 minutes. Samples were washed and stored at −80 until all samples were collected. Crosslinked cells were later thawed on ice, incubated in chilled RIPA for 10 min and sonicated 7×15 min. To prepare blocking beads, 60 uL/sample of protein G beads (Roche 11719416001) were incubated with 5% BSA on a rocker at 4 degrees for at least 1 h. […] ChIP and input DNA was quantified using Qubit DS DNA HS assay as per manufacturer's protocol (ThermoFisher Q32851). […] Library was quantified via Qubit DS DNA HS assay and library quality was determined using an Agilent 2100 Bioanalyzer. […]

Turning to `Brc1c(Br)c(Br)c2[nH]nnc2c1Br` [TBB, 4,5,6,7-tetrabromo-2H-benzotriazole], the “Gli1 mRNA / Gli transcript levels” value in experiment [1] is given as “substantially decreased; also recorded: dose dependent loss of Gli1 expression”. For the same molecule, in experiment [2], the “Brd4 occupancy at Gli1 promoter” value is reported as “blocked” and the “Brd4 occupancy at Gli2 promoter” value is listed as “blocked”.
